In general, Emax refers to the greatest response seen or fitted, relative to the assay's reference.

Assay [1] concerns primary cultured guinea-pig urinary bladder (GPB) cells. Description: Membrane hyperpolarization (MHP) assay, DiBAC(4)3 / FLIPR. It is filed as cell-based. As to conditions: for EC50: concentration that elicits 50% of the maximal response for the test sample; for Maximal Response (% P1075) / Emax: maximal steady-state hyperpolarization, normalized to response with 10 μM P1075 (100%). Here is the method:
Compounds were evaluated for potassium channel opening activity using primary cultured guinea-pig urinary bladder (GPB) cells.
For the preparation of urinary bladder smooth muscle cells, urinary bladders were removed from male guinea-pigs (Hartley, Charles River, Wilmington, Mass.) weighing 300-400 g and placed in ice-cold Ca^2+-free Krebs solution (Composition, mM: KCl, 2.7; KH2PO4, 1.5; NaCl, 75; Na2HPO4, 9.6; Na2HPO4.7H2O, 8; MgSO4, 2; glucose, 5; HEPES, 10; pH 7.4). Cells were isolated by enzymatic dissociation as previously described with minor modifications (Klockner, U. and Isenberg, G., Pflugers Arch. (1985), 405, 329-339), hereby incorporated by reference. The bladder was cut into small sections and incubated in 5 mL of the Kreb's solution containing I mg/mL collagenase (Sigma, St. Louis, Mo.) and 0.2 mg/mL pronase (Calbiochem, La Jolla, Calif.) with continuous stirring in a cell incubator for 30 minutes. The mixture was then centrifuged at 1300×g for 5 minutes, and the pellet resuspended in Dulbecco's PBS (GIBCO, Gaithersburg, Md.) and recentrifuged to remove residual enzyme. The cell pellet was resuspended in 5 mL growth media (composition: Dulbecco's modified Eagle's medium supplemented with 10% fetal bovine serum, 100 units/mL penicillin, 100 units/mL streptomycin and […] amphotericin B) and further dissociated by pipetting the suspension through a flame-polished Pasteur pipette and passing it through a polypropylene mesh membrane (Spectrum, Houston, Tex.). The cell density was adjusted to 100,000 cells/mL by resuspension in growth media. Cells were plated in clear-bottomed black 96-well plates (Packard) for membrane potential studies at a density of 20,000 cells/well and maintained in a cell incubator with 90% air: 10% CO2 until confluent. Cells were confirmed to be of smooth muscle type by cytoskeletal staining using a monoclonal mouse anti human-α-smooth muscle actin (Biomeda, Foster City, Calif.).
Functional activity at potassium channels was measured by evaluating changes in membrane potential using the bis-oxonol dye DiBAC(4) (Molecular Probes) in a 96-well cell-based kinetic assay system, Fluorescent Imaging Plate Reader (FLIPR) (K. S. Schroeder et al., J. Biomed. Screen., v. 1 pp. 75-81 (1996)), hereby incorporated by reference. DiBAC(4)3 is an anionic potentiometric probe which partitions between cells and extracellular solution in a membrane potential-dependent manner. With increasing membrane potential (for example, K^+ depolarization), the probe further partitions into the cell; this is measured as an increase in fluorescence due to dye interaction with intracellular lipids and proteins. Conversely, decreasing membrane potential (hyperpolarization by potassium channel openers) evokes a decrease in fluorescence.
Confluent guinea-pig urinary bladder cells cultured in black clear-bottomed 96-well plates were rinsed twice with […] assay buffer (composition, mM: HEPES, 20; NaCl, 120; KCl, 2; CaCl2, 2; MgCl2, 1; glucose, 5; pH 7.4 at 25° C.) containing 5 μM DiBAC(4)3 and incubated with […] of the buffer in a cell incubator for 30 minutes at 37° C. to ensure dye distribution across the membrane. After recording the baseline fluorescence for 5 minutes, the reference or test compounds, prepared at 10 times the concentration in the assay buffer, were added directly to the wells. Changes in fluorescence were monitored for an additional 25 minutes. Hyperpolarization responses were corrected for any background noise and were normalized to the response observed with 10 μM of the reference compound P1075 (assigned as 100%), a potent opener of smooth muscle KATP channels (Quast et al., Mol. Pharmacol., v. 43 pp. 474-481 (1993)), hereby incorporated by reference.
Routinely, five concentrations of P1075 or test compounds (log or half-log dilutions) were evaluated and the maximal steady-state hyperpolarization values (expressed as % relative to P1075) plotted as a function of concentration. […]

In assay [2] the test system is tissue strips obtained from Landrace pig bladders. Description: Functional potassium channel opening activity in isolated bladder strips (field-stimulated twitch). As to conditions: for Index: ED50 for P1075 divided by ED50 for the test agonist in a given tissue, averaged; for EC50: amount of agent necessary to cause 50% of the agent's maximal response, read-out: ED50 (the source's name); for Efficacy (% P1075) / Emax: maximal efficacy relative to P1075, field stimulation 0.05 Hz, 0.5 ms, 20 volts. On the procedure:
Compounds were evaluated for functional potassium channel opening activity using tissue strips obtained from Landrace pig bladders.
Landrace pig bladders were obtained from female Landrace pigs of 9-30 kg. Landrace pigs were euthanized with an intraperitoneal injection of pentobarbital solution, Somlethal®, J. A. Webster Inc., Sterling, Mass. The entire bladder was removed and immediately placed into Krebs Ringer bicarbonate solution (composition, mM: NaCl, 120; NaHCO3, 20; dextrose, 11; KCl, 4.7; CaCl2, 2.5; MgSO4, 1.5; KH2PO4, 1.2; K2EDTA, 0.01, equilibrated with 5% CO2/95% O2pH 7.4 at 37° C.). Propranolol (0.004 mM) was included in all of the assays to block β-adrenoceptors. The trigonal and dome portions were discarded. Strips 3-5 mm wide and 20 mm long were prepared from the remaining tissue cut in a circular fashion. The mucosal layer was removed. One end was fixed to a stationary glass rod and the other to a Grass FT03 transducer at a basal preload of 1.0 gram. Two parallel platinum electrodes were included in the stationary glass rod to provide field stimulation of 0.05 Hz, 0.5 milli-seconds at 20 volts. This low frequency stimulation produced a stable twitch response of 100-500 centigrams. Tissues were allowed to equilibrate for at least 60 minutes and primed with 80 mM KCl. A control concentration response curve (cumulative) was generated for each tissue using the potassium channel opener P1075 as the control agonist. […] After a 60 minute rinsing period, a concentration response curve (cumulative) was generated for the test agonist in the same fashion as that used for the control agonist P1075. The maximal efficacy of each compound (expressed as % relative to P1075) is reported. The amount of agent necessary to cause 50% of the agent's maximal response (ED50) was calculated using “ALLFIT” (DeLean et al., Am. J. Physiol., 235, E97 (1980)), hereby incorporated by reference. Agonist potencies were also expressed as an index relative to P1075. The index was calculated by dividing the ED50 for P1075 by the ED50 for the test agonist in a given tissue. Each tissue was used for only one test agonist, and the indices obtained from each tissue were averaged to provide an average index of potency.

Each structure is given as a SMILES string. Read-outs that look alike come from different tables or passages of the source.

With `Cc1ccc(C(=O)NC(NC(=NC#N)Nc2cccnc2)C(C)(C)C)cc1` (single isomer, unassigned; (+)) [Example 58, (+) N-(1-{[(cyanoimino)(3-pyridinylamino)methyl]amino}-2,2-dimethylpropyl)-4-methylbenzamide], in assay [1], the EC50 was 650 nM and the “Maximal Response (% P1075)” value came out at 87 % P1075. Also, in assay [2], the Index was 0.008, the EC50 was determined as 12000 nM and the “Efficacy (% P1075)” value amounted to 59 % P1075.

Consider `CCC(CC)(CCC#N)C(NC(=O)c1ccc(Cl)cc1)NC(=NC#N)Nc1cccnc1` (single isomer, unassigned; (+)) [Example 87, (+) 4-chloro-N-(4-cyano-1-{[(cyanoimino)(3-pyridinylamino)methyl]amino}-2,2-diethylbutyl)benzamide], for which, in assay [1], the EC50 was 520 nM and the “Maximal Response (% P1075)” value came out at 85 % P1075. Moreover, in assay [2], the Index is 0.02, the EC50 was found to be 7600 nM and the “Efficacy (% P1075)” value is given as 67 % P1075.

In assay [1] (Cavia porcellus), `N#CN=C(Nc1cccnc1)NC(NC(=O)c1ccc(Cl)cc1)C(Cl)(Cl)Cl` (stereo not drawn) [Example 45, 4-chloro-N-(2,2,2-trichloro-1-{[(cyanoimino)(3-pyridinylamino)methyl]amino}ethyl)benzamide] registered an EC50 of 40 nM and an Emax of 92%.

`CCC(CC)(CCC#N)C(NC(=O)c1ccc(Cl)cc1)NC(=NC#N)Nc1cccnc1` (stereo not drawn) [Example 65, 4-chloro-N-(4-cyano-1-{[(cyanoimino)(3-pyridinylamino)methyl]amino}-2,2-diethylbutyl)benzamide] gave a maximal effect (Emax) in assay [1] (Cavia porcellus) of 89%. In assay [1], this compound returned an EC50 of 130 nM.

As for `CC1=C(CC(NC(=O)c2ccc(Cl)cc2)NC(=NC#N)Nc2cccnc2)C(C)(C)CCC1` (stereo not drawn) [Example 66, 4-chloro-N-[1-{[(cyanoimino)(3-pyridinylamino)methyl]amino}-2-(2,6,6-trimethyl-1-cyclohexen-1-yl)ethyl]benzamide], the Emax in assay [1] (Cavia porcellus) turned out to be 79%. This compound showed an EC50 in assay [1] of 82 nM.

Take `CCCCC(C)(C)C(NC(=O)c1ccc(Cl)cc1)NC(=NC#N)Nc1cccnc1` (stereo not drawn) [Example 94, 4-chloro-N-(1-{[(cyanoimino)(3-pyridinylamino)methyl]amino}-2,2-dimethylhexyl)benzamide]: in assay [1] (Cavia porcellus), the EC50 is 160 nM and the Emax was 82%.

In assay [1] (Cavia porcellus), `C=CCOCC(CC)(COCC=C)C(NC(=O)c1ccc(Cl)cc1)NC(=NC#N)Nc1cccnc1` (stereo not drawn) [Example 96, N-(2,2-bis[(allyloxy)methyl]-1-{[(cyanoimino)(3-pyridinylamino)methyl]amino}butyl)-4-chlorobenzamide] had an EC50 of 240 nM and an Emax of 93%.

`CC(Cl)(Cl)C(NC(=O)c1cccc(Cl)c1)NC(=NC#N)Nc1ccccc1F` (stereo not drawn) [Example 172, 3-chloro-N-(2,2-dichloro-1-{[(cyanoimino)(2-fluoroanilino)methyl]amino}propyl)benzamide]: the Index in assay [2] is listed as 0.507. Further, in assay [2] (Sus scrofa), the EC50 worked out at 490 nM and the Emax is 53%.

As for `COc1ncccc1NC(=NC#N)NC(NC(=O)c1cccc(Cl)c1)C(C)(Cl)Cl` (stereo not drawn) [Example 174, 3-chloro-N-[2,2-dichloro-1-({(cyanoimino)[(2-methoxy-3-pyridinyl)amino]methyl}amino)propyl]benzamide], in assay [2], the Index came out at 2.2. In assay [2] (Sus scrofa), the EC50 was 1200 nM and the Emax is 34%.

Turning to `CC(Cl)(Cl)C(NC(=O)c1ccc(Cl)cc1)NC(=NC#N)Nc1ccccc1F` (stereo not drawn) [Example 175, 4-chloro-N-(2,2-dichloro-1-{[(cyanoimino)(2-fluoroanilino)methyl]amino}propyl)benzamide], the Index in assay [2] worked out at 0.148. Also, in assay [2] (Sus scrofa), the EC50 was 1500 nM and the Emax came to 54%.

`CC(Cl)(Cl)C(NC(=O)c1ccc(Cl)cc1)NC(=NC#N)Nc1ccc(F)nc1` (stereo not drawn) [Example 180, 4-chloro-N-[2,2-dichloro-1-({(cyanoimino)[(6-fluoro-3-pyridinyl)amino]methyl}amino)propyl]benzamide] had an Index in assay [2] of 0.040. Further, in assay [2] (Sus scrofa), the EC50 turned out to be 2300 nM and the Emax turned out to be 98%.

Regarding `CC(C)(C)CC(NC(=O)c1ccc(Br)cc1)NC(=NS(=O)(=O)C(F)(F)F)Nc1cccnc1` (stereo not drawn) [Example 188, 4-bromo-N-{3,3-dimethyl-1-[((3-pyridinylamino){[(trifluoromethyl)sulfonyl]imino}methyl)amino]butyl}benzamide], the Index in assay [2] stood at 0.020. For the same compound, in assay [2] (Sus scrofa), the EC50 was determined as 10000 nM and the Emax worked out at 87%.

`CC(C)(C)CC(NC(=O)c1ccc(C(F)(F)F)cc1)NC(=NS(=O)(=O)C(F)(F)F)Nc1cccnc1` (stereo not drawn) [Example 189, N-{3,3-dimethyl-1-[((3-pyridinylamino){[(trifluoromethyl)sulfonyl]imino}methyl)amino]butyl}-4-(trifluoromethyl)benzamide]: in assay [2], the Index was 0.078. In addition, in assay [2] (Sus scrofa), the EC50 was found to be 930 nM and the Emax came out at 66%.

As for `CC(Cl)(Cl)C(NC(=O)c1cccs1)NC(=NC#N)Nc1ccc(Cl)nc1` (stereo not drawn) [Example 192, N-(2,2-dichloro-1-{[[(6-chloro-3-pyridinyl)amino](cyanoimino)methyl]amino}propyl)-2-thiophenecarboxamide], in assay [2], the Index stood at 0.019. For the same compound, in assay [2] (Sus scrofa), the EC50 worked out at 3100 nM and the Emax was 99%.

For the compound `CCC(C)(C)N=C(NC#N)Nc1cccnc1` [Example P1075, reference compound], the “stimulated twitch / stimulated contractions of the bladder” value in assay [2] (P1075: 10^−9 to 10^−5 M, cumulative, ½ log increments) is listed as “completely eliminated the stimulated twitch”.

The record behind these values is patent US20020028836A1, “Potassium channel openers” (priority 2000, published 2002).
